{"source": "paper PMC7076388", "about": "(Pharmaceutics, 2020)", "key": {"[1]": {"biological_target": "T1, LOX from glycine max (soybean) (Glycine max, UniProt P08170)", "T1 construct": "purchased Sigma-Aldrich", "T1 sequence (P08170 1-839)": "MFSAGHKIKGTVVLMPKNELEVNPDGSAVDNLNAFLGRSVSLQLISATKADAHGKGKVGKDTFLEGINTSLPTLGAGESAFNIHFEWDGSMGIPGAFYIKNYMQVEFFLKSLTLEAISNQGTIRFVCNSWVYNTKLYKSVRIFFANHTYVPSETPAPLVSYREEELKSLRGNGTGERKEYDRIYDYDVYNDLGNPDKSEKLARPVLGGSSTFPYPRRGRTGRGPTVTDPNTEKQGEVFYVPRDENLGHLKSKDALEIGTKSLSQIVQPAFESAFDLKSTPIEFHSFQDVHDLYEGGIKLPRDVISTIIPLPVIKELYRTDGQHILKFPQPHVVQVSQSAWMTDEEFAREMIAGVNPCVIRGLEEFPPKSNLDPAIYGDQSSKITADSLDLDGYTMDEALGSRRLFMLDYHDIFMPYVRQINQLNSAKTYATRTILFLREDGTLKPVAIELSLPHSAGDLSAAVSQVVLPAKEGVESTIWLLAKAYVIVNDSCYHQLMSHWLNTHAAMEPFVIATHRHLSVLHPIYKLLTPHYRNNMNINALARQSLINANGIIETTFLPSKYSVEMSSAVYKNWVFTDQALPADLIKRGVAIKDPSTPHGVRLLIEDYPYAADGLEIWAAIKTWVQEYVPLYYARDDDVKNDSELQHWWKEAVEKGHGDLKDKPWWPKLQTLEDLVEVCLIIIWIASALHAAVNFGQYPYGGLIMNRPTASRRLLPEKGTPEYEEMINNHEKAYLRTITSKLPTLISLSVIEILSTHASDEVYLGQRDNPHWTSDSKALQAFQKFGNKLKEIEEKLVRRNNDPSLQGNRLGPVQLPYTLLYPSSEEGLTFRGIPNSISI", "set-up": "method as in PMID 30987203", "settings": "100 µM; cited from earlier work"}, "AGS cells": {"system": "AGS cells", "experiment": "MTT cell viability, AGS cells", "format": "cell-based", "settings": "100 µM, 24 h", "protocol": "Adenocarcinoma gastric cells (AGS; Sigma-Aldrich, St. Louis, MO, USA), murine-macrophage cell line (RAW 264.7; American Type Culture Collection, LGC Standards S.L.U., Barcelona, Spain), and human foetal lung fibroblasts (MRC-5; ECACC, Porton Down Salisbury, UK) were cultured as a monolayer at 37 °C in a humidified incubator with 5% carbon dioxide. AGS and RAW 264.7 cells were grown in DMEM, supplemented with 1% streptomycin/penicillin and 10% FBS (Gibco®). MRC-5 cells were grown in MEM, supplemented with 1% streptomycin/penicillin and 10% FBS.\nCell viability was evaluated by the MTT reduction assay. Cells were cultured in 96-well plates (15,000 cells/well for AGS, 25,000 cells/well for RAW and 20,000 cells/well for MRC-5) and allowed to attach for 24 h. After incubation with compounds for 24 h, MTT (0.5 mg/mL final concentration) was added to each well and the plate was incubated for 75 min at 37 °C. Formazan crystals were dissolved by the addition of a DMSO: isopropanol mixture (3:1) and then quantified spectrophotometrically at 570 nm using a microplate reader (Multiskan Thermo Fisher Scientific Oy, Vantaa, Finland)."}, "COX-1": {"biological_target": "T2, COX-1 (Ovis aries, UniProt P05979)", "T2 construct": "purchased Cayman Chemical", "T2 sequence (P05979 25-600)": "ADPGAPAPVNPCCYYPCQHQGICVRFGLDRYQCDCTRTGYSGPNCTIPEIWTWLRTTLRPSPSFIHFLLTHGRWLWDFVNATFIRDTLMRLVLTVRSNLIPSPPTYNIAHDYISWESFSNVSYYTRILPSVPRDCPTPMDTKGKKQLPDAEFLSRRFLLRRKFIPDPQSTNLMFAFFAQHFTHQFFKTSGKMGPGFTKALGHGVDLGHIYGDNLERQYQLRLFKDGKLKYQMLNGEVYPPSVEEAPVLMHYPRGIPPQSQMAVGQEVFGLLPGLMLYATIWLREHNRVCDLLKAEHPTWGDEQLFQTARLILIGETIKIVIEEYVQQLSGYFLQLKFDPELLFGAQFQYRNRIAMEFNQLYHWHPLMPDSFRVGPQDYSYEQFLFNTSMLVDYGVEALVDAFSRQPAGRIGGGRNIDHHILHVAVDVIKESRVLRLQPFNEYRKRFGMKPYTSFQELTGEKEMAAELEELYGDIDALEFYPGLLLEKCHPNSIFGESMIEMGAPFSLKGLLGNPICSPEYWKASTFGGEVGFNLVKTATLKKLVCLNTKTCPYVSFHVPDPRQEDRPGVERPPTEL", "set-up": "method as in PMID 30987203", "settings": "25 µM; cited from earlier work"}, "COX-2": {"biological_target": "T3, COX-2 (Homo sapiens, UniProt P35354)", "T3 construct": "purchased Cayman Chemical", "T3 sequence (P35354 18-604)": "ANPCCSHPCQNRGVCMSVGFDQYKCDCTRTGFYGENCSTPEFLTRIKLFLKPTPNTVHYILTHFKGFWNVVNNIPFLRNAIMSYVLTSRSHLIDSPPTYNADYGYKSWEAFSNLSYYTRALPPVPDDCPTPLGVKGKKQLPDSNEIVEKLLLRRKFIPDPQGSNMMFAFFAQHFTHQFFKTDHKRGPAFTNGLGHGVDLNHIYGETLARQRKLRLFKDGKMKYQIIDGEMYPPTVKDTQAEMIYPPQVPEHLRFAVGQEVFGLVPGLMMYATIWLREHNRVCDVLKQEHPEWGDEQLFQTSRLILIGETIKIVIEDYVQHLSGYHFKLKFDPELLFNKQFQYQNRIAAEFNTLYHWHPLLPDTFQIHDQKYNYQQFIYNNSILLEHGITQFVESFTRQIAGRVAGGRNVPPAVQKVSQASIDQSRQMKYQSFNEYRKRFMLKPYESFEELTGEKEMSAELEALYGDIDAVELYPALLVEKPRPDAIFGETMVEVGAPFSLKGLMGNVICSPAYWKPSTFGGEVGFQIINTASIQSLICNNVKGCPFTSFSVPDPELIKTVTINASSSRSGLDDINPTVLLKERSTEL", "set-up": "method as in PMID 30987203", "settings": "25 µM; low selectivity towards COX-2; cited from earlier work"}}, "note": "“Also recorded” adds a separate entry of the source.", "data": [{"smiles": "COc1ccc2cc(C(C)C(=O)NC(Cc3ccc(O)cc3)C(=O)NC(=Cc3ccccc3)C(=O)O)ccc2c1", "note": "[Compound 1, Npx-L-Tyr-Z-ΔPhe-OH]", "values": [{"measurement": "LOX inhibition at single concentration", "setting": "[1]", "value": "significantly inhibit the LOX enzyme to a similar level to naproxen; also recorded: high levels of lipoxygenase (LOX) inhibition"}, {"measurement": "toxicity towards AGS cells", "setting": "AGS cells", "value": "not toxic"}, {"measurement": "COX inhibition level (COX-1)", "setting": "COX-1", "value": "modest levels of COX inhibition"}, {"measurement": "COX inhibition level (COX-2)", "setting": "COX-2", "value": "modest levels of COX inhibition"}]}]}
